Measured values taken from patent US5795857A, “Mimetic insect pyrokinin analogs for insect control” (The United States of America as represented by the …, priority 1996, dated 1998).
“Also recorded” adds a separate entry of the source. No end group written: not given here.

Key:
[1] = test system: virgin females of Heliothis virescens; assay: Pheromonotropic assay (topical application); assay type: in vivo
Protocol: The amphiphilic carboranyl analog Cbe--Thr--Pro--Arg--Leu--NH2 was dissolved in water and solutions at concentrations of 5, 10, 25, 60, and 200 pmol/μl were prepared. The cuticular scales along the lateral side of the abdomen were removed with a 1 ml plastic pipet tip attached to house vacuum with a rubber hose. A low vacuum was applied to the apparatus and the pipet tip was gently passed over the cuticle until the scales were drawn by suction. After the scales were removed, 1 μl of peptide solution was applied to the surface of the cuticle and smoothed evenly over the prepared surface. […]
Pupae of Heliothis virescens were obtained from a laboratory colony maintained at the Insect Attractants Behavior and Basic Biology Research Laboratory, USDA-ARS, Gainesville, Fla. The pupae were separated by sex and the females were held in 4-1 cages. Cages were inspected daily for newly eclosed adults which were transferred to new cages and provided with cotton wicks soaked with a 5% sucrose solution. The insects were held at 25°[…] C. and 65%±3% relative humidity with a 12:12 (L:D) photoperiod. Virgin females were used for bioassays 2 and 3 days after eclosion during the 7th-8th hour of the photophase when little or no pheromone is present in the gland (Teal et al., 1993, Can. Entomol., 153:355-366). The cuticular scales were removed from the lateral side of the abdomen using a plastic pipet tip attached to house vacuum using a rubber hose. A low vacuum was applied and the pipet tip was passed gently over the cuticle until the scales were drawn off by suction. Insects were returned to the incubator for 24 h after the scales were removed for most experiments. However, insects were not given a recovery period in studies in which peptides were applied in DMSO (see below).
In initial studies we used dimethyl sulfoxide (DMSO) as a carrier to deliver Hez--PBAN or [6--Pha--Ala^0 ]Lom--MT--II for topical applications. […] We also assessed different carrier solvents for their ability to deliver these two peptides. Peptides were dissolved at a concentration of 500 pmol/μl in: DMSO, water, or 80% acetonitrile:20% water. Solutions were applied to the descaled abdomen in 1 μl of solvent as above. The insects were allowed to incubate for 1 h prior to excision and extraction of the pheromone gland. Extracts were analyzed for the amount of pheromone as above.
The use of water as a carrier for [6--Pha--Ala^0 ]Lom--MT--II was also assessed in dose response and temporal activity studies. For dose response studies [6--Pha--Ala^0 ]Lom--MT--II was dissolved in water at concentrations of 5, 10, 25, 50, 75, 100, 250, 500, 750 and 1000 pmol/μl. Insects were incubated for 60 min after application of 1 μl of solution to the descaled abdomen. In temporal activity studies a 100 pmol/μl dose was selected. For these experiments insects were incubated for periods of 15, 30, 60, 120, or 180 min after application of 1 μl of solution to the descaled abdomen. The ability of the parent peptide, Lom--MT--II, to stimulate pheromone production when applied topically in water was assessed by applying doses of 50, 100, 250 and 500 pmol to the abdomen. Control treatments for this experiment included insects treated with only water and females treated by topical application of 100 pmol of [6--Pha--Ala^0 ]Lom--MT--II. After incubation the sex pheromone glands were excised, extracted and analyzed for the amount of pheromone.

[2] = test system: isolated cockroach (Leucophaea maderae) hindgut; settings: values printed with reference numbers; cited from earlier work
[3] = test system: virgin females of Heliothis virescens; settings: H. virescens, printed with reference number; cited from earlier work
[4] = test system: virgin females of Heliothis virescens; settings: 100 pmole dose, cited from earlier work
[5] = oral administration; cited from earlier work
[6] = aqueous solution, 15 min to 3 hr

## LSDDMPATPADQEMYRQDPEQIDSRTKYFSPRL-NH2 [HezPBAN, reference compound]
[1]; 100 pmol in water, 15-180 min, FIG. 9
  pheromone versus water-only controls, time course, topical in water: no different from controls at any time interval; also recorded: did not contain more pheromone than was present in extracts obtained from insects treated with water only
[1]; 80% acetonitrile in water, 60 min, FIG. 7
  pheromone production, topical 500 pmol/female in 80% acetonitrile: no significant activity
[1]; DMSO carrier
  amount required to stimulate significant pheromone production relative to [6--Pha--Ala^0 ]Lom--MT--II: ten fold more
[1]; DMSO carrier, 60 min, FIG. 6
  dose from which pheromone is produced, topical in DMSO: 50 pmol/female
[1]; DMSO carrier, FIG. 6
  amount of pheromone at 100 to 1000 pmol/female, topical in DMSO: equivalent amounts of pheromone
[1]; DMSO carrier, descaled cuticle
  pheromone production after topical application in DMSO: produced pheromone; also recorded: effective in stimulating pheromone production
[1]; DMSO, 60 min, FIG. 7
  pheromone production, topical 500 pmol/female in DMSO: equivalent amounts of pheromone
[1]; water carrier
  pheromone production when applied to the surface of the cuticle in water: failed to stimulate production of significant amounts of pheromone
[1]; water, 60 min, FIG. 7
  pheromone production, topical 500 pmol/female in water: no significant activity
[2]
  Threshold Concentration, myostimulation of the isolated cockroach hindgut: 2,600 pM
[3]
  ED50, pheromone production via injection: 1.0 pmol
  Maximal Response via injection (dose): 5.0 pmol
[4]; 15 min, 1 hr, 2 hr, 3 hr following treatment, listed as PBAN
  pheromone production over control group after topical aqueous application: does not lead to production of statistically different levels of pheromone production
[4]; [6]
  ED50, pheromone production via topical application: Inactive
  Maximal Response via topical application: Inactive
[5]
  share of orally administered peptide entering the hemolymph through the gut wall: approximately 5%
